PubChem BioAssay (NCI)
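Values below derive from 48-hour exposures of cells grown in 96-well plates, with endpoints linearly interpolated between the two concentrations bracketing the appropriate inhibition level. GI50: concentration for 50% inhibition of growth. TGI: total growth inhibition.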

Columns and labels:
Test in all cases: inhibition of tumour cell growth, NCI panel, 48 h
NCI-H460 lung = test system: NCI-H460 lung
ACHN renal = test system: ACHN renal
RXF 393 renal = test system: RXF 393 renal
SK-MEL-2 melanoma = test system: SK-MEL-2 melanoma
UACC-62 melanoma = test system: UACC-62 melanoma
RPMI-8226 leukemia = test system: RPMI-8226 leukemia
DU-145 prostate = test system: DU-145 prostate
U251 CNS = test system: U251 CNS
SK-MEL-28 melanoma = test system: SK-MEL-28 melanoma
OVCAR-8 ovarian = test system: OVCAR-8 ovarian
CCRF-CEM leukemia = test system: CCRF-CEM leukemia
HCT-116 colon = test system: HCT-116 colon
PC-3 prostate = test system: PC-3 prostate
A498 renal = test system: A498 renal
MALME-3M melanoma = test system: MALME-3M melanoma
HCC-2998 colon = test system: HCC-2998 colon
T-47D breast = test system: T-47D breast
NCI/ADR-RES ovarian = test system: NCI/ADR-RES ovarian
EKVX NSCLC = test system: EKVX NSCLC
UO-31 renal = test system: UO-31 renal
BT-549 breast = test system: BT-549 breast
UACC-257 melanoma = test system: UACC-257 melanoma
NCI-H23 lung = test system: NCI-H23 lung
CAKI-1 renal = test system: CAKI-1 renal
SN12C renal = test system: SN12C renal
MDA-MB-435 = test system: MDA-MB-435
SNB-75 CNS = test system: SNB-75 CNS
M14 melanoma = test system: M14 melanoma
NCI-H226 lung = test system: NCI-H226 lung
SK-OV-3 ovarian = test system: SK-OV-3 ovarian
OVCAR-4 ovarian = test system: OVCAR-4 ovarian
SF-539 CNS = test system: SF-539 CNS
SK-MEL-5 melanoma = test system: SK-MEL-5 melanoma
OVCAR-5 ovarian = test system: OVCAR-5 ovarian
HL-60(TB) leukemia = test system: HL-60(TB) leukemia
SR leukemia = test system: SR leukemia
HCT-15 colon = test system: HCT-15 colon
TK-10 renal = test system: TK-10 renal
HT29 colon = test system: HT29 colon
OVCAR-3 ovarian = test system: OVCAR-3 ovarian
KM12 colon = test system: KM12 colon
NCI-H522 lung = test system: NCI-H522 lung
A549 NSCLC = test system: A549 NSCLC
SF-295 CNS = test system: SF-295 CNS
K-562 leukemia = test system: K-562 leukemia
SF-268 CNS = test system: SF-268 CNS
IGROV1 ovarian = test system: IGROV1 ovarian
HOP-62 NSCLC = test system: HOP-62 NSCLC
COLO 205 colon = test system: COLO 205 colon
HS 578T breast = test system: HS 578T breast
786-0 renal = test system: 786-0 renal
SNB-19 CNS = test system: SNB-19 CNS
MOLT-4 leukemia = test system: MOLT-4 leukemia

Q: What does the source list for `Cc1ccc2c(n1)C(=O)C(Cl)=C(Nc1ccc(C(C)C)cc1)C2=O`?
A: GI50 (NCI-H460 lung): 3.03 µM; TGI (NCI-H460 lung): 13.9 µM; GI50 (ACHN renal): 1.66 µM; TGI (ACHN renal): 3.09 µM; GI50 (RXF 393 renal): 1.49 µM; TGI (RXF 393 renal): 2.85 µM; GI50 (SK-MEL-2 melanoma): 1.81 µM; TGI (SK-MEL-2 melanoma): 3.54 µM; GI50 (UACC-62 melanoma): 1.83 µM; TGI (UACC-62 melanoma): 3.77 µM; GI50 (RPMI-8226 leukemia): 1.52 µM; TGI (RPMI-8226 leukemia): 4.53 µM; GI50 (DU-145 prostate): 1.73 µM; TGI (DU-145 prostate): 3.24 µM; GI50 (U251 CNS): 1.76 µM; TGI (U251 CNS): 3.51 µM; GI50 (SK-MEL-28 melanoma): 1.83 µM; TGI (SK-MEL-28 melanoma): 3.33 µM; GI50 (OVCAR-8 ovarian): 2.59 µM; TGI (OVCAR-8 ovarian): 9.48 µM; GI50 (CCRF-CEM leukemia): 1.9 µM; TGI (CCRF-CEM leukemia): 5.78 µM; GI50 (HCT-116 colon): 1.52 µM; TGI (HCT-116 colon): 3.41 µM; GI50 (PC-3 prostate): 1.28 µM; TGI (PC-3 prostate): 3.16 µM; GI50 (A498 renal): 12.5 µM; TGI (A498 renal): 25.2 µM; GI50 (MALME-3M melanoma): 1.65 µM; TGI (MALME-3M melanoma): 3.38 µM; GI50 (HCC-2998 colon): 1.99 µM; TGI (HCC-2998 colon): 3.65 µM; GI50 (T-47D breast): 1.18 µM; TGI (T-47D breast): 3.46 µM; GI50 (NCI/ADR-RES ovarian): 2.53 µM; TGI (NCI/ADR-RES ovarian): 9.2 µM; GI50 (EKVX NSCLC): 1.5 µM; TGI (EKVX NSCLC): 4.18 µM; GI50 (UO-31 renal): 1.23 µM; TGI (UO-31 renal): 2.6 µM; GI50 (BT-549 breast): 1.51 µM; TGI (BT-549 breast): 2.9 µM; GI50 (UACC-257 melanoma): 1.69 µM; TGI (UACC-257 melanoma): 3.18 µM; GI50 (NCI-H23 lung): 1.82 µM; TGI (NCI-H23 lung): 5.05 µM; GI50 (CAKI-1 renal): 1.53 µM; TGI (CAKI-1 renal): 3.15 µM; GI50 (SN12C renal): 2.03 µM; TGI (SN12C renal): 5.38 µM; GI50 (MDA-MB-435): 1.93 µM; TGI (MDA-MB-435): 3.7 µM; GI50 (SNB-75 CNS): 1.67 µM; TGI (SNB-75 CNS): 5.17 µM; GI50 (M14 melanoma): 1.7 µM; TGI (M14 melanoma): 3.25 µM; GI50 (NCI-H226 lung): 1.68 µM; TGI (NCI-H226 lung): 4.35 µM; GI50 (SK-OV-3 ovarian): 10.4 µM; TGI (SK-OV-3 ovarian): 22.3 µM; GI50 (OVCAR-4 ovarian): 1.57 µM; TGI (OVCAR-4 ovarian): 3.15 µM; GI50 (SF-539 CNS): 1.62 µM; TGI (SF-539 CNS): 3.07 µM; GI50 (SK-MEL-5 melanoma): 1.59 µM; TGI (SK-MEL-5 melanoma): 3 µM; GI50 (OVCAR-5 ovarian): 1.74 µM; TGI (OVCAR-5 ovarian): 3.53 µM; GI50 (HL-60(TB) leukemia): 1.44 µM; TGI (HL-60(TB) leukemia): 3.5 µM; GI50 (SR leukemia): 0.643 µM; TGI (SR leukemia): 3.48 µM; GI50 (HCT-15 colon): 1.39 µM; TGI (HCT-15 colon): 3.14 µM; GI50 (TK-10 renal): 2.57 µM; TGI (TK-10 renal): 4.13 µM; GI50 (HT29 colon): 2.57 µM; TGI (HT29 colon): 6.44 µM; GI50 (OVCAR-3 ovarian): 1.4 µM; TGI (OVCAR-3 ovarian): 2.77 µM; GI50 (KM12 colon): 3.25 µM; TGI (KM12 colon): 14 µM; GI50 (NCI-H522 lung): 2.02 µM; TGI (NCI-H522 lung): 4.58 µM; GI50 (A549 NSCLC): 3.26 µM; TGI (A549 NSCLC): 12.4 µM; GI50 (SF-295 CNS): 3.63 µM; TGI (SF-295 CNS): 13 µM; GI50 (K-562 leukemia): 0.351 µM; TGI (K-562 leukemia): 1.68 µM; GI50 (SF-268 CNS): 1.76 µM; TGI (SF-268 CNS): 3.86 µM; GI50 (IGROV1 ovarian): 1.29 µM; TGI (IGROV1 ovarian): 2.96 µM; GI50 (HOP-62 NSCLC): 5.34 µM; TGI (HOP-62 NSCLC): 20.1 µM; GI50 (COLO 205 colon): 1.89 µM; TGI (COLO 205 colon): 3.97 µM; GI50 (HS 578T breast): 2.07 µM; TGI (HS 578T breast): 5.96 µM; GI50 (786-0 renal): 2.08 µM; TGI (786-0 renal): 4.5 µM; GI50 (SNB-19 CNS): 1.9 µM; TGI (SNB-19 CNS): 4.57 µM; GI50 (MOLT-4 leukemia): 2.16 µM; TGI (MOLT-4 leukemia): 6.36 µM
